Source: patent US6245758A, “Methods of use for peroxynitrite decomposition catalysts, pharmaceutical compositions therefor” (priority 1996, dated 2001)
Where a name gives a salt, the structure may show the parent alone.

Tests used:
[1] = Stopped-flow kinetic analysis of catalytic decomposition of peroxynitrite by metal complexes; conditions: pH = 7.4, 22° C.
Method: To screen metal complexes for peroxynitrite decomposition catalytic activity of the present invention, peroxynitrite is prepared and isolated as its sodium salt by the reaction of acidic hydrogen peroxide with sodium nitrite followed by rapid quenching with NaOH as set out by Halfpenny and Robinson, in J. Chem. So., 1952, 928-938. Peroxynitrite has an absorbance maximum at 302 nm with an extinction coefficient of 1670 M^-1 cm^-1. Therefore, it is possible to directly observe the decomposition of peroxynitrite by stop-flow spectrophotometric analysis by monitoring the decomposition of the absorbance at 302 nm. That is, such observation of the decomposition of peroxynitrite at a rate accelerated over the natural decomposition rate with the addition of the metal complex identifies a compound of the present invention.
Kinetic measurements were made on an OLIS Rapid Scanning Stopped-Flow Spectrometer (On-Line Instrument Systems Inc., Bogart, Ga.)) using the OLISRSM-1000 Operating system for data acquisition and manipulation.
Thus, in a typical experiment the natural background decomposition rate of sodium peroxynitrite was determined as follows. A 24 mM stock solution of sodium peroxynitrite in 50 mM NaOH is load into the small volume syringe and 100 mM potassium phosphate pH=7.4 is charged into the large volume syringe of the stopped-flow spectrophotometer. All stopped -flow measurements were made at 22 ° C. Injection of the solutions into the sample compartment results in ~25 fold dilution of the stock sodium peroxynitrite. […] To test for catalytic peroxynitrite decomposition activity, the metal complex was dissolved in 100 mM potassium phosphate buffer pH=7.4 and loaded into the large syringe and the decomposition of peroxynitrite was monitored as described above. The catalytic rate constant (kcat M-1 sec^-1) for the complexes tested was determined by varying the complex concentration and plotting kobs vs [complex] Table 1. The kobs were obtained from averages of three stopped flow analysis at each catalyst concentration.

[2] = test system: carrageenan-induced paw edema; experiment: Carrageenan-induced paw edema; type: in vivo, rat
Text: Carrageenan-induced paw edema. The effects of peroxynitrite catalysts in vivo were initially tested on the carrageenan-induced paw edema. The choice of using this in vivo model of inflammation was based on the knowledge that 1) the inflammatory response is blocked by NOS inhibitors and 2) by superoxide dismutase (SOD). This indicates the participation of both NO and of O2-. Male Sprague Dawley rats were purchased from Harlan Sprague-Dawley (Indianapolis, Ind.). Male Sprague Dawley rats (175-200 g) received a subplantar injection in the right hind paw of carrageenan (0.1 ml of a 1% suspension in 0.85% saline). Paw volume was measured by a plethysmometer immediately before the injection of carrageenan and then at hourly intervals from 1 to 6 h. Edema was expressed as the increase in paw volume (in ml) measured after carrageenan injection compared to the pre-injection value for individual animals.

RAW 264.7 cells = experiment: Cell protection assay, Alamar Blue viability after peroxynitrite challenge; type: cell-based, murine; conditions: PN 500 micromolar; RAW cells, FIG. 9 (H2 TMPyP and ZnTMPyP: data not shown)
Method: FIG. 8: Comparison of Ni and Fe Catalyst Protection of RAW Cells from PN(peroxynitrite)-mediated Injury. RAW 264.7 cells were plated at approximately 2×10^5 per well of a 96-well plate. […] Each condition represents the mean of 4 wells ±sem.
FIG. 9: Protection from PN-mediated RAW Cell Injury by Fe Catalysts. Cells were treated with 500 micromolar PN in the presence or the absence of the following catalysts: FeTMPyP, FeTMPS, FeTPPS. Cell viability was monitored as described in the text and figure legends 1, 2 and 3. Values represent the mean of 4 determinations ±sem.
Protocol for Cell Protection Assays using Peroxynitrite Decomposition Catalysts: A cell viability assay was established to rapidly assess the efficacy of peroxynitrite(PN) catalysts in protecting cells from PN25 mediated injury and death. The peroxynitrite challenge consisted of a pulse of synthetic PN added exogenously to cells. In order to better assess the efficacy of PN catalysts in protecting cells from PN-mediated damage, a quantity of peroxynitrite(in 50 mM NaOH) determined to cause maximal injury(100%) was added as an exogenous pulse to each well of cells in the presence or absence of catalyst. The NaOH vehicle was not toxic by itself.
Cells(RAW 264.7 cells or P815 mastocytoma cells; American Type Culture Collection, Rockville, Md.) were plated to confluence on 96-well tissue culture plates. Each well is washed twice with Dulbecco's phosphate buffered saline(DPBS; GIBCO BRL, Grand Island, N.Y.) to remove protein and other serum components which might react with the exogenous peroxynitrite. To each well is then added 200 μl of DPBS. PN is next placed into separate wells at increasing concentrations and cell viability monitored. The dose at which maximal cell death is attained is then utilized for the catalyst protection assessment.
Phosphate-buffered saline (200 uL) containing increasing concentrations of catalyst is next placed into individual wells of cells. The maximal dose of PN is subsequently administered to all wells of cells. After 15 minutes, the medium is removed from each well and the cells are either allowed to recover overnight in Earles minimum essential medium without phenol red and supplemented with 10% fetal bovine serum or alternatively the plate of cells is assayed that day for mitochondrial integrity using the Alamar Blue viability assay(Alamar Biosciences, Inc.; Sacramento, Calif.). In either case, cells are incubated at 37° C. in 5% CO2.
Cell injury is measured as follows. Briefly, 10% Alamar Blue(v/v) in Earles MEM with 10% FBS is added to each well of cells for 1-2h. Cell metabolism of the dye generates a fluorescent product which is directly related to the number of viable cells. Moreover, the production of the fluorescent metabolite is linear for over 2 h. The amount of fluorescent product in 100 μl of conditioned medium from each well of cells is then measured with an IDEXX fluorescent plate reader (gain setting of 1%) at an emission wavelength of 575 nm after exciting at 545 nm. Viability is either given as absolute fluorescent units or as a percent of the value obtained for untreated cells(100%).

[3] = 30 mg/kg i.v., 1 h post carrageenan
[4] = 30 mg/kg i.v., 2 h post carrageenan
[5] = 30 mg/kg i.v., 3 h post carrageenan
[6] = 30 mg/kg i.v., 4 h post carrageenan
[7] = 30 mg/kg i.v., 5 h post carrageenan
[8] = 30 mg/kg i.v., 6 h post carrageenan

Compound	kcat, catalytic rate constant for the decomposition of sodium peroxynitrite [1]	% Inhibition of Paw Edema [2, 3] [%]	% Inhibition of Paw Edema [2, 4] [%]	% Inhibition of Paw Edema [2, 5] [%]	% Inhibition of Paw Edema [2, 6] [%]	% Inhibition of Paw Edema [2, 7] [%]	% Inhibition of Paw Edema [2, 8] [%]	other results
CC1=NCCCNCCCN=C(C)c2cccc1n2.[Cl-].[Cl-].[Ni+2] [Ni(CR)Cl2, reference compound]	Inactive							
CC(=O)[O-].Cc1c(-c2c3nc(c(-c4c(C)c(S(=O)(=O)[O-])c(C)c(S(=O)(=O)[O-])c4C)c4ccc([n-]4)c(-c4c(C)c(S(=O)(=O)[O-])c(C)c(S(=O)(=O)[O-])c4C)c4nc(c(-c5c(C)c(S(=O)(=O)[O-])c(C)c(S(=O)(=O)[O-])c5C)c5ccc2[n-]5)C=C4)C=C3)c(C)c(S(=O)(=O)[O-])c(C)c1S(=O)(=O)[O-].[Mn+3].[Na+].[Na+].[Na+].[Na+].[Na+].[Na+].[Na+].[Na+] [Mn(III)TMPS, Acetato 5,10,15,20tetrakis(3,5,disulfonatomesityl)porphyrin Manganese(III) octasodium salt]	29000 M⁻¹ s⁻¹	0	0	0	0	0	0	
Cc1c(-c2c3nc(c(-c4c(C)c(S(=O)(=O)[O-])c(C)c(S(=O)(=O)[O-])c4C)c4ccc([n-]4)c(-c4c(C)c(S(=O)(=O)[O-])c(C)c(S(=O)(=O)[O-])c4C)c4nc(c(-c5c(C)c(S(=O)(=O)[O-])c(C)c(S(=O)(=O)[O-])c5C)c5ccc2[n-]5)C=C4)C=C3)c(C)c(S(=O)(=O)[O-])c(C)c1S(=O)(=O)[O-].[Na+].[Na+].[Na+].[Na+].[Na+].[Na+].[Na+].[Na+].[Ni+2] [Ni(II)TMPS, Acetato-5,10,15,20-tetrakis(3,5-disulfonatomesityl)porphyrin Nickel (II) octasodium salt]	87200 M⁻¹ s⁻¹							
MnTPPS [reference compound]								inhibition of edema formation ([2]; 30 mg/kg i.v.): failed to inhibit edema formation
CC(=O)[O-].O=S(=O)(O)c1ccc(-c2c3nc(c(-c4ccc(S(=O)(=O)O)cc4)c4ccc([n-]4)c(-c4ccc(S(=O)(=O)O)cc4)c4nc(c(-c5ccc(S(=O)(=O)O)cc5)c5ccc2[n-]5)C=C4)C=C3)cc1.[Fe+3] [Fe(III)TPPS, Acetato-5,10,15,20-tetrakis(4-sulfonatophenyl)porphyrin iron(III)]	2.06e+06 M⁻¹ s⁻¹	0	27	25	30	34	33	protection of cells from PN-mediated injury (RAW 264.7 cells): significant protection of cells; % Inhibition of Paw Edema ([2]; 3 mg/kg i.v., 1 h post carrageenan): 0%; % Inhibition of Paw Edema ([2]; 3 mg/kg i.v., 2 h post carrageenan): 29%; % Inhibition of Paw Edema ([2]; 3 mg/kg i.v., 3 h post carrageenan): 20%; % Inhibition of Paw Edema ([2]; 3 mg/kg i.v., 4 h post carrageenan): 20%; % Inhibition of Paw Edema ([2]; 3 mg/kg i.v., 5 h post carrageenan): 19%; % Inhibition of Paw Edema ([2]; 3 mg/kg i.v., 6 h post carrageenan): 5%; % Inhibition of Paw Edema ([2]; 10 mg/kg i.v., 1 h post carrageenan): 0%; % Inhibition of Paw Edema ([2]; 10 mg/kg i.v., 2 h post carrageenan): 17%; % Inhibition of Paw Edema ([2]; 10 mg/kg i.v., 3 h post carrageenan): 20%; % Inhibition of Paw Edema ([2]; 10 mg/kg i.v., 4 h post carrageenan): 23%; % Inhibition of Paw Edema ([2]; 10 mg/kg i.v., 5 h post carrageenan): 19%; % Inhibition of Paw Edema ([2]; 10 mg/kg i.v., 6 h post carrageenan): 20%
O=C([O-])CC(O)(CC(=O)[O-])C(=O)[O-].[Fe+3] [Fe(III)Citrate, Iron(III)citrate, reference compound]	15000 M⁻¹ s⁻¹							
CC1=CC(C)=Nc2ccccc2[N-]C(C)=CC(C)=Nc2ccccc2[N-]1.[Ni+2] [Ni(II)[14]12eneN4]	17000 M⁻¹ s⁻¹							
COc1cccc(C=NCCN=Cc2cccc(OC)c2[O-])c1[O-].[Cl-].[Fe+3] [Fe(III)(3,3'MeO2 Salen)]	50000 M⁻¹ s⁻¹							
[Cl][Fe]([Cl])[Cl] [FeCl3, reference compound]								inhibition of edema formation ([2]; 5 mg/kg, n=6): failed to inhibit edema formation
Cc1c(-c2c3nc(c(-c4c(C)c(S(=O)(=O)[O-])c(C)c(S(=O)(=O)[O-])c4C)c4ccc([n-]4)c(-c4c(C)c(S(=O)(=O)[O-])c(C)c(S(=O)(=O)[O-])c4C)c4nc(c(-c5c(C)c(S(=O)(=O)[O-])c(C)c(S(=O)(=O)[O-])c5C)c5ccc2[n-]5)C=C4)C=C3)c(C)c(S(=O)(=O)[O-])c(C)c1S(=O)(=O)[O-].[Na+].[Na+].[Na+].[Na+].[Na+].[Na+].[Na+].[Na+].[Zn+2] [ZnTMPS, reference compound]		0	0	0	0	0	0	
O=C([O-])CN(CCN(CC(=O)[O-])CC(=O)[O-])CC(=O)[O-].[Fe+3] [Fe(III)EDTA, iron(III)EDTA, reference compound]	20000 M⁻¹ s⁻¹							
Cc1c(-c2c3nc(c(-c4c(C)c(S(=O)(=O)O)c(C)c(S(=O)(=O)O)c4C)c4ccc([nH]4)c(-c4c(C)c(S(=O)(=O)O)c(C)c(S(=O)(=O)O)c4C)c4nc(c(-c5c(C)c(S(=O)(=O)O)c(C)c(S(=O)(=O)O)c5C)c5ccc2[nH]5)C=C4)C=C3)c(C)c(S(=O)(=O)O)c(C)c1S(=O)(=O)O [Example H2TMPS, 5,10,15,20-tetrakis(3,5-disulfonatedmesityl)porphyrin octasodium salt]	Inactive	0	0	0	0	0	0	inhibition of edema formation ([2]; 30 mg/kg i.v.): failed to inhibit edema formation
